Laboratory results published in publication PMC5663395, “Chemical Validation of Methionyl-tRNA Synthetase as a Druggable Target in Leishmania donovani” (ACS Infectious Diseases, 2017).

test system: THP-1 lysosomes; experiment: Lysosomotropism assay (LysoTracker Red competition); format: cell-based, human; conditions: PMA-differentiated THP-1 cells, 30 min
Protocol: calculated, both in terms of pEC50 values. MIC (minimum inhibitory concentration) values are defined as the lowest concentration tested at which maximal inhibition is reached.
THP-1 cells were differentiated in 96-well plates with PMA as described above. Following differentiation the cells were treated for 30 min with dose-response curves of test compounds in presence of 100 nM LysoTracker Red DND-99 (Thermo Fisher) and 5 µg/ml Hoechst 33342. Next cells were washed 3 times with Hanks Buffered Saline Solution (Gibco) and imaged on a Perkin Elmer Operetta system. An image analysis algorithm to measure mean Lysotracker Red DND-99 intensity per cell was developed in Columbus. Mean Intensity was normalised using a no dye control (100% effect) and DMSO treated wells stained with Lysotracker Red DND-99 (0% effect control). Dose-response curves were fitted for the test compounds using a four-parameter equation (equation 5 above) and constrained to 0 and 100% where necessary.
To measure the pKa of DDD806905, a fast UV-metric method was performed using a Sirius T3 instrument (Sirius Analytical, U.K.). The calculation of the pKa was determined using the Sirius T3 refine software (Sirius Analytical, U.K.). In brief, the UV-metric pKa method is based on measuring pH during an acid-base titration and monitoring UV absorbance shift. The ionisation curve (Bjerrum curve) was then used to determine the pH where exactly 50 % of neutral and 50 % of ionised species was present. DDD806905 must be fully dissolved throughout the titration and so the titration is set to start at the pH where DDD806905 is in its fully ionised state. The appearance of precipitate was monitored throughout the experiment by a turbidity sensing device. […] The pKas of DDD806905 was determined at the pH where there was maximal change in UV absorbance with respect to pH. […]
LogD7.4 values were quantified using a Sirius T3 instrument (Sirius Analytical, U.K.). […] The instrument software calculated the pH of each data point using mass and charge balance equations and then fitted this theoretical data to the experimental data. […]

Structure (SMILES)	competition with lysotracker red accumulation in THP-1 lysosomes
CCN(CC)CCCC(C)Nc1ccnc2cc(Cl)ccc12 (stereo not shown) [chloroquine, reference compound]	did compete with lysotracker red accumulation

test system: L. donovani axenic amastigotes; experiment: Leishmania axenic amastigote viability assay; format: cell-based, Leishmania donovani; conditions: Leishmania donovani; Table 1; read-out: Leishmania Axenic Amastigote EC50
Protocol: (§1) carried out as described above using 5%, 10% and 20% FBS in the media. To examine the effect of the methionine concentration on the potency of DDD806905 parasites were grown in the presence of drug and in the presence (or absence) of 20-fold excess methionine (0.3 g/l). IC50 curve fitting was undertaken in GraFit version 6.0 (Erithacus Software) using a four-parameter logistic dose-response curve (equation 6), with s the slope.
(§2) Leishmania Axenic Amastigote Assay
(§3) The Leishmania axenic amastigote assay was performed using the method published in Nühs et al 15.
(§4) Leishmania Intracellular Amastigote Assay
(§5) The intramacrophage Leishmania assay was performed using a modified version of the method described in De Rycker et al 16. […]
amphotericin B was included. Controls were as follows: columns 11 and 12: DMSO, columns 23 and 24: amphotericin B (final concentration 2 µM). 350 nl of compound was pre-dispensed into 384-well sterile intermediary plates. To the intermediary plates, 35 µl of THP-1 media was added and plates were shaken for >5 min to ensure complete mixing. THP-1 cells (8,000 per well, 50 µl) were plated into black clear-bottom 384-well plates (Corning) in presence of 20 nM phorbol 12-myristate 13- […]
in a humidified incubator for 75 h. The cells were then washed with 450 µl sterile phosphate buffered saline (PBS) supplemented with 1 mM CaCl2, 0.5 mM MgCl2, 0.1% (w/v) bovine serum albumin (PBS-A) and amastigotes were added to all wells at a multiplicity of infection of 5 (40,000 amastigotes per well). After 40 min at room temperature, plates were returned to the incubator.
Amastigotes were incubated in the presence of THP-1 macrophages for 16 h. Any remaining extracellular amastigotes were subsequently removed by washing with PBS-A followed by addition of 25 µl of the compound pre-dilutions using an Ipette-pro pipetting station (FluidX). The final dilution of each compound was 200-fold. Plates were incubated for 96 h and then washed (250 µl PBS-A) and fixed (4 % (v/v) formaldehyde-PBS, 30 min, room temperature). After fixation, the wells were washed with 250 µl PBS, stained (10 µg/ml DAPI, 0.4 µg/mL HCS Cellmask Deep Red in PBS + 0.1% (v/v) Triton X-100, 30 min, room temperature) and washed with 250 µl PBS. Finally, PBS + 0.05% (v/v) thimerosal was added to the wells, the plates were sealed and imaged on a high-content microscope (GE IN Cell 2000) using a 10x objective. Image analysis was carried out with GE IN Cell Analyzer 1000 Workstation using the “Multi Target Analysis” module. For each well, i) THP-1 cell count (cytotoxicity readout) and ii) average number of amastigotes per cell (potency readout) were […]

Structure (SMILES)	EC50 [µM]
O=C(CCNc1nc(=O)c2ccccc2[nH]1)NCc1cc(Cl)cc(Cl)c1 [Compound 27]	22
O=c1nc(NCCCCCc2cc(Cl)cc(Cl)c2)[nH]c2ccccc12 [Compound 29]	> 50

The next lines start with the values.

EC50 [µM]	Structure (SMILES)
38	O=c1nc(NCCCNCc2cc(Cl)cc(Cl)c2)[nH]c2ccccc12 [Compound 26]
> 50	O=C(NCCCNc1nc(=O)c2ccccc2[nH]1)c1cc2c(Cl)cc(Cl)cc2[nH]1 [Compound 25]
> 50	O=c1nc(OCCCNCc2cc3c(Cl)cc(Cl)cc3[nH]2)[nH]c2ccccc12 [Compound 31]
18	CN(CCCNc1nc(=O)c2ccccc2[nH]1)Cc1cc2c(Cl)cc(Cl)cc2[nH]1 [Compound 30]

same assay, conditions: Supplementary Table 1; read-out: Leishmania Axenic Amastigote EC50

Structure (SMILES)	EC50 [µM]
CCOc1c(Br)cc(C)cc1CNCCCNc1nc2ccccc2[nH]1 [Compound 14]	> 50
Brc1cc(Br)c2c(c1)C(NCCCNc1nc3ncccc3[nH]1)CCN2 (stereo not shown) [Compound 11]	6.2
COc1cc(C(F)(F)F)c2cc(CNCCCNc3nc4ccccc4[nH]3)[nH]c2c1 [Compound 10]	> 50

test system: L. donovani promastigotes; experiment: Leishmania promastigote viability assay; format: cell-based, Leishmania donovani; conditions: Supplementary Table 1; read-out: Leishmania Promastigote EC50
Protocol: After suitable sample preparation, the
In vivo Leishmaniasis Animal Model […]
administered twice daily over the same interval.
Parasite load is expressed in Leishman-
Knock-out and overexpressor generation
Leishmania Promastigote Assay
Serum shift experiments were […]
as §1, §2, §3, §4, §5
amphotericin B was included. Controls were as follows: columns 11 and 12: DMSO, columns 23 and 24: amphotericin B (final concentration 2 µM). 350 nl of compound was pre-dispensed into 384-well sterile intermediary plates. To the intermediary plates, 35 µl of THP-1 media was added and plates were shaken for >5 min to ensure complete mixing. THP-1 cells (8,000 per well, 50 µl) were plated into black clear-bottom 384-well plates (Corning) in presence of 20 nM phorbol 12-myristate 13-

Structure (SMILES)	EC50 [µM]
CCOc1c(Br)cc(C)cc1CNCCCNc1nc2ccccc2[nH]1 [Compound 14]	7.6
Brc1cc(Br)c2c(c1)C(NCCCNc1nc3ncccc3[nH]1)CCN2 (stereo not shown) [Compound 11]	0.54
COc1cc(C(F)(F)F)c2cc(CNCCCNc3nc4ccccc4[nH]3)[nH]c2c1 [Compound 10]	6.5

biological target: LdMetRS (Leishmania donovani, UniProt A0A3Q8IBX2); experiment: LdMetRS biochemical enzyme assay (BIOMOL Green); conditions: Supplementary Table 1; read-out: LdMetRS IC50
Sequence (A0A3Q8IBX2 entry or part of it): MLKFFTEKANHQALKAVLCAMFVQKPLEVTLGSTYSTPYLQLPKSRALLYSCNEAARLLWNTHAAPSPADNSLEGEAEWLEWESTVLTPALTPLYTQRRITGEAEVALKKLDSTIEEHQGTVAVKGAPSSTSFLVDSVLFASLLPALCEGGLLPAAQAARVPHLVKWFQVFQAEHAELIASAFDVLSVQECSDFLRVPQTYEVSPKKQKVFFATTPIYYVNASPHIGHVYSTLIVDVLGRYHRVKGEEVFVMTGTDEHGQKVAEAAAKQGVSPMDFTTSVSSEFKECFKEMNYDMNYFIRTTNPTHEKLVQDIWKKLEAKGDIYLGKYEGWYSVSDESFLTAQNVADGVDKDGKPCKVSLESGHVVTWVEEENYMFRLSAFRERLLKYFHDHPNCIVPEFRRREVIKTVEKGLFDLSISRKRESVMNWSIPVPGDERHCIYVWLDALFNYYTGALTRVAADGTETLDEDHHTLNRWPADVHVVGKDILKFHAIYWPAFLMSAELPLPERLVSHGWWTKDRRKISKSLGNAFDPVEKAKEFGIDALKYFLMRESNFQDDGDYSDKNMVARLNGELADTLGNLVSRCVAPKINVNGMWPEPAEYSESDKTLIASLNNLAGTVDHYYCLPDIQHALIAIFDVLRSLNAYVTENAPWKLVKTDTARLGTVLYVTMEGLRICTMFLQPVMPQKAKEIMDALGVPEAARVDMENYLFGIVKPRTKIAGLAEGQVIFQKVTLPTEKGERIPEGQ
Protocol: LdMetRS Assay Development and Kinetic Parameter Determinations
Activity of the LdMetRS enzyme was determined by monitoring levels of pyrophosphate released during the first step of the enzymatic reaction. The pyrophosphate formed was converted to two inorganic phosphate molecules using a pyrophosphatase enzyme and levels of the resulting phosphate molecules measured using the BIOMOL® Green reagent (Enzo Life Sciences) 2.
Following optimization of the assay buffer and determination of the enzyme linearity, 384-well plate based assays were carried out at room temperature in a 50 μl reaction volume containing 30 mM Tris, pH 8.0, 140 mM NaCl, 30 mM KCl, 40 mM MgCl2, 0.01% (v/v) Brij-35, 1 mM DTT, 1 U/ml pyrophosphatase, 50 nM recombinant LdMetRS, and varying concentrations of substrates. Michaelis constants for the ATP and methionine substrates were determined in an end point assay using the above buffer and enzyme conditions. Data were fitted to the modified Michaelis-Menten equations […]
Equation 1 (Hill equation): […]
Equation 2 (High substrate inhibition Michaelis-Menten equation): […]
LdMetRS Inhibitor Studies
All test compounds were solubilized in 100% DMSO to a concentration of 10 mM. To generate IC50 data for the compounds, assay ready plates containing 10-point inhibitor curves (half-log serial dilutions) were prepared using an Echo® 550 (Labcyte).
Following preparation of the inhibitor curves, assays were carried out at room temperature in clear, flat bottom, polystyrene, 384-well plates (Greiner). Each assay was performed in a 50 μl reaction volume containing 30 mM Tris; pH 8.0, 140 mM NaCl, 30 mM KCl, 40 mM MgCl2, 0.01% (v/v) Brij-35, 1 mM DTT, 1 U/ml pyrophosphatase, 50 nM recombinant LdMetRS, 50 µM methionine and 100 µM […]
Assays were performed by adding 25 μl buffer with enzyme to assay plates (with buffer only added to ‘no enzyme’ control wells) before the reaction was initiated with the addition of a 25 μl mix containing methionine, ATP and pyrophosphatase to all wells. Following a 120 min reaction at room temperature the assay was stopped with the addition of 50 μl BIOMOL® Green. The BIOMOL® Green signal was allowed to develop for 30 min before the absorbance of each well was read at 650 nm using an EnVision multilabel plate reader (PerkinElmer Life Sciences). All liquid dispensing steps were carried out using a Thermo Scientific WellMate dispenser (Matrix).
ActivityBase from IDBS (version 8.0.5.4) was used for data processing and analysis. All IC50 curve fitting was undertaken using ActivityBase XE (version 7.7.1) from IDBS. A four-parameter logistic dose-response curve was utilized with prefit used for all four parameters.
For DDD806905 Kiapp determinations, data fitting to the Morrison equation (equation 3) was carried out using GraFit v6.0 (Erithacus Software). It should be noted that data for fitting to the Morrison equation was normalised to a ‘100 µM DDD806905’ control rather than a ‘no enzyme’ control as […]
Equation 3 (Morrison equation): […]
vi = K1 −−([ ] [ ]ET+IT+Ki)−([ ] [ ]ET+IT+i)[ ] [ ]TIE4T
LdMetRS Mode of Inhibition Studies
To establish the mode of inhibition of DDD806905, data sets (generated using the BIOMOL® Green assay platform previously described) were collected by varying both the inhibitor and substrate concentrations. Using GraFit v6.0 (Erithacus Software) each data set was individually fitted to the Michaelis-Menten equation or the modified high substrate inhibition Michaelis-Menten equation described above (equation 2), and the resulting Lineweaver-Burk plots were examined for diagnostic […]
Data sets were then globally fitted to the appropriate model (with equations 4 and 5 used for […]
If more than one model appeared possible, then data were fitted to both and examined for significance using the F-test function in GraFit.

Structure (SMILES)	IC50 [µM]
CCOc1c(Br)cc(C)cc1CNCCCNc1nc2ccccc2[nH]1 [Compound 14]	12
Brc1cc(Br)c2c(c1)C(NCCCNc1nc3ncccc3[nH]1)CCN2 (stereo not shown) [Compound 11]	0.17
COc1cc(C(F)(F)F)c2cc(CNCCCNc3nc4ccccc4[nH]3)[nH]c2c1 [Compound 10]	4.8

same assay, conditions: Table 1; read-out: LdMetRS IC50

Structure (SMILES)	IC50 [µM]
O=C(CCNc1nc(=O)c2ccccc2[nH]1)NCc1cc(Cl)cc(Cl)c1 [Compound 27]	2.8
O=c1nc(NCCCCCc2cc(Cl)cc(Cl)c2)[nH]c2ccccc12 [Compound 29]	> 100

Continued, values first:

IC50 [µM]	Structure (SMILES)
0.74	O=c1nc(NCCCNCc2cc(Cl)cc(Cl)c2)[nH]c2ccccc12 [Compound 26]
3.3	O=C(NCCCNc1nc(=O)c2ccccc2[nH]1)c1cc2c(Cl)cc(Cl)cc2[nH]1 [Compound 25]
22	O=c1nc(OCCCNCc2cc3c(Cl)cc(Cl)cc3[nH]2)[nH]c2ccccc12 [Compound 31]
0.03	CN(CCCNc1nc(=O)c2ccccc2[nH]1)Cc1cc2c(Cl)cc(Cl)cc2[nH]1 [Compound 30]
